Laboratory results published in patent US7626076B2, “Transgenic mouse whose genome comprises a homozygous disruption of its α1G gene, a method of preparing the same and use thereof” (Orient Bio., Inc., priority 2002, dated 2009).

Key:
Assay type in all cases: in vivo, mouse
[1] = system: wild-type and α1G −/− mice; test: EEG recording of cortex and thalamus after injection of BMB; conditions: 10 mg/kg into the peritoneal cavity
Experimental: Systematic administration or focal injection of bicuculline into the cortex has been known to evoke SWDs mainly originating from the territory of the cortex (Steriade and Contreras, Journal of Neurophysiology, 1998, 80, 1439-55). To determine the role of α1G in the cortex-dependent mechanism of SWDs, the present inventors examined the EEG pattern after injection of BMB into the peritoneal cavity of mice at 10 mg/kg.
However, because of the complexity of the bicuculline-induced seizures, the present inventors could not conclude whether there is any quantitative difference in the amplitude of the SWDs or in the time lag of SWD occurrences for the two types of mice (i.e., wild-type and α1G −/−). […] Thus, it seems that the BMB-induced SWDs observed here are also associated with other types of generalized seizures.

[2] = system: wild-type and α1G −/− mice; test: Thalamic field activity (depth electrodes) and epidural EEG after (RS)-baclofen in freely moving animals; conditions: 30 mg/kg i.p.
Experimental: To confirm the result of Example 6, the present inventors examined the field activity of thalamic nuclei using depth electrodes in freely moving animals. […] To examine the thalamic SWDs, the present inventors injected (RS)-baclofen i.p. at 30 mg/kg instead of the dose, i.e., 20 mg/kg, used previously (FIG. 4B). […] The administration of baclofen synchronized all thalamic activities into 2-3 Hz SWDs in wild-type nice (FIG. 5B, left). In the α1G −/− thalamus, however, baclofen reduced the amplitudes of peaks in a wide range of frequency, as if it caused general desynchronization (FIG. 5B, right).

[3] = system: wild-type and α1G −/− mice; test: SWD generation in epidural EEG after systemic injection of absence seizure-inducing agents; conditions: for SWD generation in epidural EEG: α1G −/− mice
Source text: To examine the role of α1G in the generation of SWDs in vivo, the present inventors systematically [“systemic” and “systematic” are different] injected into α1G −/− mice and wild-type mice either γ-butyrolactone, a prodrug of γ-hydroxybutyric acid, or (RS)-baclofen. Absence seizures induced by these drugs are characterized by bilaterally synchronous SWDs and have been associated with behavioral arrest, facial myoclonus, and vibrissal twitching.

[4] = system: wild-type and α1G −/− mice; test: Convulsive seizures induced by 4-AP (EEG and behavioral seizure score)
Source text: The present inventors tested whether the seizure resistance of α1G −/− mice was specific to absence seizures. […] The EEG pattern of these ictal discharges was quite different from that observed in the spike-and-wave seizures induced by baclofen or bicuculline.
The below scores grade the seizures according to behavioral seizures as monitored by video.
1: mild tremors of the head
2: whole body tremors with loss of postural control
3: erratic running, erratic jumping, or tonic-clonic movement of the limbs
4: tonic extension of the whole body or death

C[N+]1(C)CCc2cc3c(cc2[C@H]1[C@@H]1OC(=O)c2c1ccc1c2OCO1)OCO3.[Br-] [BMB, bicucullinemethobromide]
time to initiation of seizure spikes in the cortex [1]: within five minutes
SWD generation in EEG ([1]; α1G −/− mice): exhibited SWD-like activities

NCC(CC(=O)O)c1ccc(Cl)cc1 (racemic) [(RS)-baclofen]
frequency of SWDs in epidural EEG ([2]; duration of SWDs significantly increased versus 20 mg/kg): 2-3 Hz
frequency of SWDs in thalamus (field recording) ([2]; wild-type thalamus): 2-3 Hz
SWD generation in thalamus (field recording) ([2]; α1G −/− thalamus): no such synchronized activities were observed
frequency of SWDs in epidural EEG ([3]; wild-type mice, 20 mg/kg): 3-4 Hz
SWD generation in epidural EEG ([3]; 20 mg/kg): marked resistance to the generation of SWDs

Nc1ccncc1 [4-AP, 4-aminopyridine]
mice that developed seizures ([4]; 2 mg/kg into the peritoneal cavity, C57BL/6J and 129/sv): 25%
mice that developed tonic-clonic seizures ([4]; 10 mg/kg into the peritoneal cavity, C57BL/6J and 129/sv): All of the mice
time to vigorous ictal discharges after injection ([4]; 10 mg/kg, both wild-type and α1G −/− mice): 30 to 40 min
severity of induced seizures graded by behavioral symptoms, wild-type versus α1G −/− mice ([4]; seizure score 0-4, 2 mg/kg and 10 mg/kg): no quantitative difference

O=C1CCCO1 [γ-butyrolactone]
frequency of paroxysmal SWDs in epidural EEG ([3]; wild-type mice, 70 mg/kg): 3-5 Hz
SWD generation in epidural EEG ([3]; 70 mg/kg): did not display typical SWD patterns
